{"source": "patent US20260176285A1", "about": "“SALT OF DIOXANE QUINOLINE COMPOUND, CRYSTAL FORM THEREOF, PREPARATION METHODS THEREFOR AND USES THEREOF” (Beijing Scitech-MQ Pharmaceuticals Limited, priority 2022, published 2026)", "key": {"[1]": {"test_system": "human lung cancer cells EBC-1", "test": "Efficacy in nude mouse tumor-bearing model of human lung cancer cells EBC-1", "assay_type": "in vivo, Balb/c nude mouse", "how_it_was_run": "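Female BALB/c nude mice bearing subcutaneous EBC-1 xenografts (5×10^6 cells; 150-200 mm^3 at start), 6/group, dosed orally once daily for about 3 weeks at 15 and 7.5 mg/kg (free-base equivalent) in 0.1% CMC-Na. Tumors measured twice weekly; T/C (%) from relative tumor volume versus vehicle.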"}, "[2]": {"test": "Solid-state stability evaluation (XRPD, HPLC)", "assay_type": "physicochemical", "details": "for Purity / Purity/initial purity: listed as p-Toluenesulfonate salt crystal form A-II", "experimental": "The following 6 test samples were placed under 25° C./60% RH and 40° C./75% RH conditions for 1 week, and then the physical and chemical stability of the samples was tested by XRPD and HPLC.\nAt the same time, after the p-toluenesulfonate salt crystal form A-II and crystal form B-III solids were placed at 80° C. for 24 hours, the physical and chemical stability of the samples were tested by XRPD and HPLC."}, "[3]": {"test": "Dynamic solubility in water, SGF, FaSSIF and FeSSIF", "assay_type": "physicochemical", "parameters": "S (dynamic solubility): unit not given here", "details": "listed as p-Toluenesulfonate salt crystal form A-II; for S (dynamic solubility): 37° C., feed 10 mg/mL", "how_it_was_run": "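Free form and salt crystal forms tested over time in water, SGF (pH 1.8), FaSSIF (pH 6.5) and FeSSIF (pH 5.0), simulated fluids made with SIF powder. At each time point samples were centrifuged, passed through 0.45 μm PTFE, and filtrate concentration (HPLC) and pH measured.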"}, "[4]": {"test": "Hygroscopicity by dynamic moisture sorption (DVS)", "assay_type": "physicochemical", "details": "DVS, listed as p-Toluenesulfonate salt crystal form A-II", "how_it_was_run": "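Mass change of salt and free-form crystal samples recorded at 25° C over a 0% RH-95% RH-0% RH cycle. Steps were 10% RH (last step 5%) with a dm/dt equilibrium criterion of 0.002%/min.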"}}, "data": [{"compound": "O=C(Nc1ccc(F)cc1)C1(C(=O)Nc2ccc(Oc3ccnc4cc(OCCCN5CCOCC5)c5c(c34)OCCO5)c(F)c2)CC1", "note": "[Example 2, N-(3-fluoro-4-((5-(3-morpholinopropoxy)-2,3-dihydro-[1,4]dioxano[2,3-f]quinolin-10-yl)oxy)phenyl)-N-(4-fluorophenyl)cyclopropane-1,1-dicarboxamide]", "values": [{"measurement": "T/C (relative tumor proliferation rate)", "setting": "[1]; 7.5 mg/kg oral once a day, day 7", "result": 61.3, "unit": "%"}, {"measurement": "T/C (relative tumor proliferation rate)", "setting": "[1]; 7.5 mg/kg oral once a day, day 10", "result": 47.4, "unit": "%"}, {"measurement": "T/C (relative tumor proliferation rate)", "setting": "[1]; 7.5 mg/kg oral once a day, day 14", "result": 40.3, "unit": "%"}, {"measurement": "T/C (relative tumor proliferation rate)", "setting": "[1]; 7.5 mg/kg oral once a day, day 18", "result": 37.7, "unit": "%"}, {"measurement": "T/C (relative tumor proliferation rate)", "setting": "[1]; 7.5 mg/kg oral once a day, day 21", "result": 33.1, "unit": "%"}, {"measurement": "T/C (relative tumor proliferation rate)", "setting": "[1]; 15 mg/kg oral once a day, day 3", "result": 67.9, "unit": "%"}, {"measurement": "T/C (relative tumor proliferation rate)", "setting": "[1]; 15 mg/kg oral once a day, day 7", "result": 37.3, "unit": "%"}, {"measurement": "T/C (relative tumor proliferation rate)", "setting": "[1]; 15 mg/kg oral once a day, day 10", "result": 25.4, "unit": "%"}, {"measurement": "T/C (relative tumor proliferation rate)", "setting": "[1]; 15 mg/kg oral once a day, day 14", "result": 17.5, "unit": "%"}, {"measurement": "T/C (relative tumor proliferation rate)", "setting": "[1]; 15 mg/kg oral once a day, day 18", "result": 16.0, "unit": "%"}, {"measurement": "T/C (relative tumor proliferation rate)", "setting": "[1]; 15 mg/kg oral once a day, day 21", "result": 12.09, "unit": "%"}, {"measurement": "Purity", "setting": "[2]; 25° C./60% RH, 1 week", "result": 99.52, "unit": "area %"}, {"measurement": "Purity/initial purity", "setting": "[2]; 25° C./60% RH, 1 week", "result": 100.1, "unit": "%"}, {"measurement": "Purity/initial purity", "setting": "[2]; 40° C./75% RH, 1 week", "result": 100.0, "unit": "%"}, {"measurement": "Change of Crystal form", "setting": "[2]; 80° C., 24 hours", "result": "no"}, {"measurement": "Purity", "setting": "[2]; 80° C., 24 hours", "result": 99.42, "unit": "area %"}, {"measurement": "S (dynamic solubility)", "setting": "[3]; FaSSIF, 1 hour", "result": 0.073}, {"measurement": "pH of the filtrate", "setting": "[3]; FaSSIF, 1 hour", "result": 6.1}, {"measurement": "S (dynamic solubility)", "setting": "[3]; FaSSIF, 2 hours", "result": 0.066}, {"measurement": "pH of the filtrate", "setting": "[3]; FaSSIF, 2 hours", "result": 6.1}, {"measurement": "S (dynamic solubility)", "setting": "[3]; FaSSIF, 4 hours", "result": 0.059}, {"measurement": "pH of the filtrate", "setting": "[3]; FaSSIF, 4 hours", "result": 6.1}, {"measurement": "S (dynamic solubility)", "setting": "[3]; FaSSIF, 24 hours", "result": 0.072}, {"measurement": "pH of the filtrate", "setting": "[3]; FaSSIF, 24 hours", "result": 5.1}, {"measurement": "S (dynamic solubility)", "setting": "[3]; FeSSIF, 1 hour", "result": 1.8}, {"measurement": "pH of the filtrate", "setting": "[3]; FeSSIF, 1 hour", "result": 5.0}, {"measurement": "S (dynamic solubility)", "setting": "[3]; FeSSIF, 2 hours", "result": 2.0}, {"measurement": "pH of the filtrate", "setting": "[3]; FeSSIF, 2 hours", "result": 5.0}, {"measurement": "S (dynamic solubility)", "setting": "[3]; FeSSIF, 4 hours", "result": 1.5}, {"measurement": "pH of the filtrate", "setting": "[3]; FeSSIF, 4 hours", "result": 5.0}, {"measurement": "S (dynamic solubility)", "setting": "[3]; FeSSIF, 24 hours", "result": 0.84}, {"measurement": "pH of the filtrate", "setting": "[3]; FeSSIF, 24 hours", "result": 5.0}, {"measurement": "S (dynamic solubility)", "setting": "[3]; H2O, 1 hour", "result": 2.7}, {"measurement": "pH of the filtrate", "setting": "[3]; H2O, 1 hour", "result": 4.8}, {"measurement": "S (dynamic solubility)", "setting": "[3]; H2O, 2 hours", "result": 2.7}, {"measurement": "pH of the filtrate", "setting": "[3]; H2O, 2 hours", "result": 4.9}, {"measurement": "S (dynamic solubility)", "setting": "[3]; H2O, 4 hours", "result": 2.8}, {"measurement": "pH of the filtrate", "setting": "[3]; H2O, 4 hours", "result": 4.7}, {"measurement": "S (dynamic solubility)", "setting": "[3]; H2O, 24 hours", "result": 2.5}, {"measurement": "pH of the filtrate", "setting": "[3]; H2O, 24 hours", "result": 4.2}, {"measurement": "S (dynamic solubility)", "setting": "[3]; SGF, 1 hour", "result": 6.8}, {"measurement": "pH of the filtrate", "setting": "[3]; SGF, 1 hour", "result": 2.3}, {"measurement": "S (dynamic solubility)", "setting": "[3]; SGF, 2 hours", "result": "completely dissolved"}, {"measurement": "S (dynamic solubility)", "setting": "[3]; SGF, 4 hours", "result": "completely dissolved"}, {"measurement": "S (dynamic solubility)", "setting": "[3]; SGF, 24 hours", "result": 6.3}, {"measurement": "pH of the filtrate", "setting": "[3]; SGF, 24 hours", "result": 2.3}, {"measurement": "Moisture adsorption (25° C./80% RH)", "setting": "[4]; 25° C./80% RH", "result": 0.52, "unit": "%"}, {"measurement": "Hygroscopicity", "setting": "[4]; 25° C.", "result": "Slightly"}]}]}
